Values belong to the compound of their own block, whether it stands above or below them.
What was measured:
Type in all cases: physicochemical
[1] = Hygroscopicity: water content by TGA after exposure to relative humidity; conditions: for Water content (by TGA): Table 4
Description: The TGA analysis was performed with a Mettler M3 thermogravimeter with samples of about 8 mg and a scan rate of 10° C./min from 25° C. to 200° C., subtracting a blank from the sample. The TGA oven was constantly purged with nitrogen gas at a flow rate of 40 ml/min, and standard 150 μl alumina crucibles covered by lids with 1 hole were used.
(§1) TGA analysis determined that this form has a water content of 7.8 percent by weight water.
Fenoldopam Type VI was produced when a mixture of about 50 mg of fenoldopam mesylate Type I, produced in Examples 2 and 4, was exposed to 0 percent relative humidity at room temperature for 8 days.

[2] = Stability under humid conditions: crystalline form by XRD after exposure to relative humidity
Description: (§2) X-Ray powder diffraction data were obtained by using methods known in the art with a SCINTAG powder X-Ray diffractometer model X'TRA equipped with a solid-state detector. The X-Ray radiation was copper radiation, having a wavelength of 1.5418 Å. A round aluminum sample holder with zero background was used for the measurements. All peak positions are within ±0.2° 2θ.
as §1
Fenoldopam mesylate Type I was stored at 100 percent relative humidity for 8 days at room temperature. […]

[3] = Stability on drying/heating at 80° under vacuum, crystalline form by XRD; conditions: dried 16 hours at 80° under vacuum; methanesulfonate
Description: as §2
An 81.5 gram sample of the product produce in Example 17 was dried for 16 hours at 80° under vacuum, providing a yield of 81.2 grams, having a water content of 0.05 percent by weight, and an isopropanol content of 1620 ppm. An XRD analysis confirmed the product sample was fenoldopam mesylate Type II.
A 4.08 gram sample of the product of Example 22 was dried at 80° C. under vacuum for 16 hours, providing a yield of 3.95 grams, having a water content of 0.02 percent by weight and a methanol content of 766 ppm. An XRD analysis confirmed the product sample was fenoldopam mesylate Type III.

[4] = 100 percent relative humidity, more than about 7 days, room temperature

Water content (by TGA) ([1]; 0 % RH, 8 days, room temperature): 0.9
Water content (by TGA) ([1]; 20 % RH, 8 days): 7.9
Water content (by TGA) ([1]; 40 % RH, 8 days): 8.0
Water content (by TGA) ([1]; 60 % RH, 8 days): 7.9
Water content (by TGA) ([1]; 80 % RH, 8 days): 8.0
Water content (by TGA) ([1]; initial): 8.0
Time the crystalline form is stable (remains as the Type I dihydrate) on exposure to relative humidity ([2]; 0 to 100% relative humidity): more than 5 days
Crystalline form (by XRD) ([2]; 20 % RH, 8 days, room temperature): Type I
Crystalline form (by XRD) ([2]; 40 % RH, 8 days, room temperature): Type I
Crystalline form (by XRD) ([2]; 60 % RH, 8 days, room temperature): Type I
Crystalline form (by XRD) ([2]; 80 % RH, 8 days, room temperature): Type I
Crystalline form (by XRD) ([2]; 100 % RH, 8 days, room temperature, methanesulfonate): remains fenoldopam mesylate Type I
Crystalline form (by XRD) ([2]; Table 4, 0 % RH, 8 days, room temperature): Type VI
Crystalline form (by XRD) ([2]; Table 4, 20 % RH, 8 days): Type I
Crystalline form (by XRD) ([2]; Table 4, 40 % RH, 8 days): Type I
Crystalline form (by XRD) ([2]; Table 4, 60 % RH, 8 days): Type I
Crystalline form (by XRD) ([2]; Table 4, 80 % RH, 8 days): Type I
Crystalline form (by XRD) ([2]; Table 4, initial): Type I
Crystalline form (by XRD) ([2]; initial sample): Type I
SMILES: CS(=O)(=O)O.Oc1ccc(C2CNCCc3c2cc(O)c(O)c3Cl)cc1 (centres unmarked) [Type I, 6-chloro-2,3,4,5-tetrahydro-1-(4-hydroxyphenyl)-[1H]-3-benzazepine-7,8-diol methanesulfonate]

Crystalline form (by XRD) after drying [3]: Type II
SMILES: CS(=O)(=O)O.Oc1ccc(C2CNCCc3c2cc(O)c(O)c3Cl)cc1 (centres unmarked) [Type II, 6-chloro-2,3,4,5-tetrahydro-1-(4-hydroxyphenyl)-[1H]-3-benzazepine-7,8-diol methanesulfonate, reference compound]

Crystalline form (by XRD) after drying [3]: Type III
Crystalline form (by XRD) ([2]; Table 3, 80 % RH, 8 days): Type III
Crystalline form (by XRD) ([2]; Table 3, 100 % RH, 8 days): Type III
Crystalline form (by XRD) ([2]; Table 3, initial sample): Type III
SMILES: CS(=O)(=O)O.Oc1ccc(C2CNCCc3c2cc(O)c(O)c3Cl)cc1 (centres unmarked) [Type III, 6-chloro-2,3,4,5-tetrahydro-1-(4-hydroxyphenyl)-[1H]-3-benzazepine-7,8-diol methanesulfonate]

Water content (by TGA) after humidity exposure [1, 4]: 7.8 percent by weight
Crystalline form after humidity exposure (by PXRD) [2, 4]: transforms this form to Type I
SMILES: CS(=O)(=O)O.Oc1ccc(C2CNCCc3c2cc(O)c(O)c3Cl)cc1 (centres unmarked) [Type V, 6-chloro-2,3,4,5-tetrahydro-1-(4-hydroxyphenyl)-[1H]-3-benzazepine-7,8-diol methanesulfonate]
